In patent US6468979B1, “Erythromycin derivatives with antibiotic activity” (Zambon Group S.p.A., priority 1998, dated 2002):
In brackets after ≈: the same amount, converted by molar mass.

Assays:
S. haemolyticus 161 = experiment: In vitro antibacterial activity (MIC), broth dilution micromethod; assay type: cell-based, Staphylococcus haemolyticus; settings: erythromycin-resistant strain, MHB, 37° C., 18 hours
Description: (§1) The minimum inhibitory concentrations (MIC), with respect to Gram-positive bacteria (erythromycin-sensitive and -resistant strains) and Gram-negative bacteria, were determined by means of the broth-scaler dilution micromethod in twin series [National Committee for Clinical Laboratory Standards, 1990; Methods for dilution antimicrobial susceptibility tests for bacteria that grow aerobically; Approved standards M7-A2-NCCLS, Villanova, Pa.], using Mueller Hinton Broth (MHB) as culture medium.
(§2) Azithromycin [The Merck Index, XIIth Edition, No. 946) was used as reference macrolide.
(§3) The MIC values, expressed in μg/ml, were determined after incubating the microplates at 37° C. for 18 hours, by evaluating the lowest concentration of antibiotic capable of inhibiting bacterial growth.

S. epidermis 60 = experiment: as above; assay type: cell-based, Staphylococcus spp.; settings: erythromycin-resistant (inducible) strain, MHB, 37° C., 18 hours
Description: as §1, §2, §3

S. specie 916 = experiment: as above; assay type: cell-based, Staphylococcus spp.; settings: erythromycin-resistant (inducible) strain, MHB, 37° C., 18 hours
Description: as §1, §2, §3

S. coag. Neg. 845 = experiment: as above; assay type: cell-based, Staphylococcus spp.; settings: erythromycin-resistant strain, MHB, 37° C., 18 hours
Description: as §1, §2, §3

S. aureus 929 = experiment: as above; assay type: cell-based, Staphylococcus aureus; settings: erythromycin-resistant strain, MHB, 37° C., 18 hours
Description: as §1, §2, §3

S. aureus 77 = experiment: as above; assay type: cell-based, Staphylococcus aureus; settings: erythromycin-resistant strain, MHB, 37° C., 18 hours
Description: as §1, §2, §3

S. pneumoniae 1035 = experiment: as above; assay type: cell-based, Streptococcus pneumoniae; settings: Streptococcus pneumoniae, 1035; erythromycin-resistant strain; MHB with 5% horse serum, 37° C., 18 hours
Description: as §1
(§4) In the case of Streptococcus pneumoniae, the medium was supplemented with 5% horse serum.
as §2, §3

S. pneumoniae 1051 = experiment: as above; assay type: cell-based, Streptococcus pneumoniae; settings: Streptococcus pneumoniae, 1051; erythromycin-resistant strain; MHB with 5% horse serum, 37° C., 18 hours
Description: as §1, §4, §2, §3

S. pneumoniae 1047 = experiment: as above; assay type: cell-based, Streptococcus pneumoniae; settings: Streptococcus pneumoniae, 1047; erythromycin-resistant strain; MHB with 5% horse serum, 37° C., 18 hours
Description: as §1, §4, §2, §3

[1] = test system: Streptococcus pyogenes C203; experiment: In vivo therapeutic efficacy in experimental pulmonary infection in mice; settings: CD1 mice, death observed for 7 days, probit analysis; for PD50 1 hour after infection: single oral dose 1 hour after intranasal infection; for PD50 24 hours before infection: single oral dose 24 hours before intranasal infection
Description: The therapeutic efficacy, expressed as the 50% protective dose (PD50), of the compounds of formula (I) was evaluated in the experimental pulmonary infection induced in mice by Streptococcus pyogenes C203.
Charles River albino mice (strain CD1) weighing 23-25 g were used, kept in groups of 6 to a cage and fed normally with a standard diet and water ad libitum.
A suspension of Streptococcus pyogenes C203 (equal to about 10^8 CFU) in tryptone broth (0.05 ml) was administered intranasally to each mouse, anaesthetized with a mixture of ethyl ether and chloroform.
The compounds of formula I and the clarithromycin reference compounds were administered orally in a single dose, as a 0.5% suspension Methocel® 1 hour after the infection and 24 hours before the infection.
Observation of the death of the mice was continued for 7 days after the infection.
The PD50, expressed as μmol/kg, was calculated by means of probit analysis.

MIC (S. epidermis 60; Staphylococcus, 60) [µg/mL]	MIC (S. specie 916; Staphylococcus, 916) [µg/mL]	MIC (S. coag. Neg. 845; Staphylococcus) [µg/mL]	MIC (S. aureus 929; Staphylococcus aureus, 929) [µg/mL]	MIC (S. aureus 77; Staphylococcus aureus, 77) [µg/mL]	MIC (S. pneumoniae 1035) [µg/mL]	MIC (S. pneumoniae 1051) [µg/mL]	MIC (S. pneumoniae 1047) [µg/mL]	Structure (SMILES)	MIC (S. haemolyticus 161; Staphylococcus haemolyticus, 161) [µg/mL]	PD50 1 hour after infection [1] [µmol/kg]	PD50 24 hours before infection [1] [µmol/kg]	MIC S. haemolyticus 161 (S. haemolyticus 161) [µg/mL]	MIC S. epidermis 60* (S. epidermis 60) [µg/mL]	MIC S. specie 916* (S. specie 916) [µg/mL]	MIC S. coag. Neg. 845 (S. coag. Neg. 845) [µg/mL]	MIC S. aureus 929 (S. aureus 929) [µg/mL]	MIC S. aureus 77 (S. aureus 77) [µg/mL]
> 64	> 64	> 64	> 64	> 64	4 (≈ 5.34 µM)	16 (≈ 21.4 µM)	2 (≈ 2.67 µM)	CC[C@H]1OC(=O)[C@H](C)[C@@H](O[C@H]2C[C@@](C)(OC)[C@@H](O)[C@H](C)O2)[C@H](C)[C@@H](O[C@@H]2O[C@H](C)C[C@H](N(C)C)[C@H]2O)[C@](C)(O)C[C@@H](C)CN(C)[C@H](C)[C@@H](O)[C@]1(C)O [Azithromycin, reference compound]	> 64	–	–	–	–	–	–	–	–
–	–	–	–	–	–	–	–	CC[C@H]1OC(=O)[C@H](C)[C@@H](O[C@H]2C[C@@](C)(OC)[C@@H](O)[C@H](C)O2)[C@H](C)[C@@H](O[C@@H]2O[C@H](C)C[C@H](N(C)C)[C@H]2O)[C@](C)(OC)C[C@@H](C)C(=O)[C@H](C)[C@@H](O)[C@]1(C)O [Clarithromycin, reference compound]	–	7.38	>85.6	–	–	–	–	–	–
–	–	–	–	–	–	–	–	CC[C@H]1OC(=O)[C@H](C)[C@@H](O[C@H]2C[C@@](C)(OC)[C@@H](O)[C@H](C)O2)[C@H](C)[C@@H](O[C@@H]2O[C@H](C)C[C@H](N(C)C)[C@H]2O)[C@](C)(O)C[C@@H](C)/C(=N\OCCNCCCCCCNCc2nc(-c3nccs3)cs2)[C@H](C)[C@@H](O)[C@]1(C)O [Compound 1, erythromycin A (E)-9-[O-[2-[6-[([2,4′]bithiazole-2′-ylmethyl)amino]hexylamino]ethyl]oxime]]	–	22.9	15.5	>64	2 (≈ 1.87 µM)	2 (≈ 1.87 µM)	>64	>64	>64
–	–	–	–	–	–	–	–	CC[C@H]1OC(=O)[C@H](C)[C@@H](O[C@H]2C[C@@](C)(OC)[C@@H](O)[C@H](C)O2)[C@H](C)[C@@H](O[C@@H]2O[C@H](C)C[C@H](N(C)C)[C@H]2O)[C@](C)(O)C[C@@H](C)/C(=N\OCCN(C)CCCCCCNCc2nc(-c3nccs3)cs2)[C@H](C)[C@@H](O)[C@]1(C)O [Compound 2]	–	–	–	>64	2 (≈ 1.84 µM)	4 (≈ 3.68 µM)	>64	>64	>64
–	–	–	–	–	–	–	–	CC[C@H]1OC(=O)[C@H](C)[C@@H](O[C@H]2C[C@@](C)(OC)[C@@H](O)[C@H](C)O2)[C@H](C)[C@@H](O[C@@H]2O[C@H](C)C[C@H](N(C)C)[C@H]2O)[C@](C)(O)C[C@@H](C)/C(=N\OCCNCCCCCCNCc2csc(-c3cccs3)n2)[C@H](C)[C@@H](O)[C@]1(C)O [Compound 4, Erythromycin A (E)-9-[O-[2-[6-[(2-thiophen-2-ylthiazol-4-ylmethyl)amino]hexylamino]ethyl]oxime]]	–	11.4	14.3	16 (≈ 14.9 µM)	0.5 (≈ 0.467 µM)	8 (≈ 7.47 µM)	16 (≈ 14.9 µM)	16 (≈ 14.9 µM)	64 (≈ 59.8 µM)
